We go through twelve compounds from ChEMBL document CHEMBL1132910, “SAR of 4-hydroxypiperidine and hydroxyalkyl substituted heterocycles as novel p38 map kinase inhibitors” (Bioorg Med Chem Lett, 2000).

A word on the IC50: it is the concentration needed to halve the response being measured. A lower IC50 goes with greater potency. The term Cmax denotes the peak of the concentration-time curve. As usually defined, the inhibition in vivo is the drop in the measured response relative to a control, in per cent. Usually bioavailability stands for the share of a dose that reaches the circulation, judged against a reference dose that is usually intravenous. Read a high bioavailability as good availability. As usually defined, the ED50 is the dose at which the effect has come halfway, by size or by number of responders.

In data set [1] the target is T1, Prostaglandin G/H synthase 1 (Ovis aries, UniProt P05979).
T1 sequence (P05979 whole entry): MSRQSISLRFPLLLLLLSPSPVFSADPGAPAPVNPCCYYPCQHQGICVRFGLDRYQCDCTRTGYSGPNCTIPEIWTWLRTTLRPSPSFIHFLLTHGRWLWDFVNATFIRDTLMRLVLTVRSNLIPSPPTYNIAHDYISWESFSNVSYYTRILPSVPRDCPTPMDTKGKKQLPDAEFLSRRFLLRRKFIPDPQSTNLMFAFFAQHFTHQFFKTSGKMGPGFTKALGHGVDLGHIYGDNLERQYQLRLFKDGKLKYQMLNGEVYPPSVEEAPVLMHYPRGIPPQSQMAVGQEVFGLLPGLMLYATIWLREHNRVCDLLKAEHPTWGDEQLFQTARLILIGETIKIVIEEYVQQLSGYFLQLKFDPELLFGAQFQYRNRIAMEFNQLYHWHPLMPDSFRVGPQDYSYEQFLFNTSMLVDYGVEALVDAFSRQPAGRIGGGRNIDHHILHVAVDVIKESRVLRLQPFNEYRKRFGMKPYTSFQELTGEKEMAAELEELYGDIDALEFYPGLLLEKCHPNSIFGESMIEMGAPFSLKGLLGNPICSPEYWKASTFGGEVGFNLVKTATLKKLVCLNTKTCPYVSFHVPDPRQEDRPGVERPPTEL
Put plainly: Inhibition of Prostaglandin G/H synthase 1, COX-1.

Data set [2] addresses Mitogen-activated protein kinase 14 (Mus musculus, UniProt P47811). Put plainly: Inhibition of murine p38 alpha MAP kinase.
A short description of data set [3]: Cmax value at a oral dose of […] mg/kg. The format is ADME, organism-based. To be noted: in vivo, 20 mg/kg.
Data set [4] has as its target Protein kinase C alpha type (Bos taurus, UniProt P04409). The experiment in a line: Inhibition of PKCalpha kinase.
For data set [5], the system named is Rattus norvegicus. Put plainly: Effect on adjuvant induced arthritis in rats at 25 mg/kg peroral dose twice daily over 10 days. The format is functional. To be noted: 240 h, route oral.
The target in data set [6] is Mitogen-activated protein kinase 9 (Homo sapiens, UniProt P45984). The experiment in a line: Inhibition of JNK2 kinase.
Data set [7] can be described thus: Bioavailability. The format is ADME, organism-based. To be noted: eutheria, in vivo.
In data set [8] the target is Epidermal growth factor receptor (Homo sapiens, UniProt P00533). The experiment in a line: Inhibition of EGFR kinase.
Data set [9] deals with Proto-oncogene tyrosine-protein kinase Src (Gallus gallus, UniProt P00523). Put plainly: Inhibition of c-src kinase.
Data set [10] deals with Tyrosine-protein kinase ABL1 (Mus musculus, UniProt P00520). Put plainly: Inhibition of c-abl kinase.
The target in data set [11] is T2, Mitogen-activated protein kinase 13 (Homo sapiens, UniProt O15264).
T2 sequence (O15264 whole entry): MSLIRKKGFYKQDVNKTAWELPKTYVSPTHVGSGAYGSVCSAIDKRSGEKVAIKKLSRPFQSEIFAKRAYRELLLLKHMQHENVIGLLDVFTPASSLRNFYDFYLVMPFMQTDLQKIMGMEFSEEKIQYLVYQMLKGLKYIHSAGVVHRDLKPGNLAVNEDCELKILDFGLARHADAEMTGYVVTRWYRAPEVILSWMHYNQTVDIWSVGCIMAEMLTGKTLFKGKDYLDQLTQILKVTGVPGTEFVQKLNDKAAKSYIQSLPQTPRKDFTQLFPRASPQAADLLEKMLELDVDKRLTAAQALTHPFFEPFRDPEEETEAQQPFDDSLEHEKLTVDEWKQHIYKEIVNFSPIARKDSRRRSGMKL
The experiment in a line: Inhibition of human p38 delta MAP kinase.

Data set [12] addresses Mitogen-activated protein kinase 1 (Mus musculus, UniProt P63085). The experiment in a line: Inhibition of ERK2 kinase.
The test system of data set [13] is Mus musculus. Put plainly: (§1) Inhibition of LPS-induced TNF-alpha release in mice at 20 mg/kg. It counts as functional.
Data set [14] deals with Mitogen-activated protein kinase 8 (Homo sapiens, UniProt P45983). Put plainly: Inhibition of JNK1 kinase.
In data set [15] the target is Mitogen-activated protein kinase 11 (Homo sapiens, UniProt Q15759). The experiment in a line: Inhibition of human p38 beta MAP kinase.
In data set [16] the test system is Mus musculus. The description is as §1. It counts as functional, organism-based. More on the design: dose 20 mg/kg.
The subject of data set [17] is Rattus norvegicus. The experiment in a line: Effect on collagen induced arthritis in rats at 25 mg/kg peroral dose twice daily over 10 days. It counts as functional. To be noted: route oral.
Data set [18] has as its target T3, Dual specificity mitogen-activated protein kinase kinase 6 (Homo sapiens, UniProt P52564).
T3 sequence (P52564 whole entry): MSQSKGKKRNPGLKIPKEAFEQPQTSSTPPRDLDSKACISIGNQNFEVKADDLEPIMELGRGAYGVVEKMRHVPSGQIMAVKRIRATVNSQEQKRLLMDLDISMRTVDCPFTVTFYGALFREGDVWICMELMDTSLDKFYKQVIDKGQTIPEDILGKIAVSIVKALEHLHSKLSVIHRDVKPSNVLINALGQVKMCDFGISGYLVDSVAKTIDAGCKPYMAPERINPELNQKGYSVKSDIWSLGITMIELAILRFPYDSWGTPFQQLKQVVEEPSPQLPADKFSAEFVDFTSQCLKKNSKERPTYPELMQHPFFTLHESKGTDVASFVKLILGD
The experiment in a line: Inhibition of MKK6b kinase.

Chain of Mitogen-activated protein kinase 14 (P47811 whole entry): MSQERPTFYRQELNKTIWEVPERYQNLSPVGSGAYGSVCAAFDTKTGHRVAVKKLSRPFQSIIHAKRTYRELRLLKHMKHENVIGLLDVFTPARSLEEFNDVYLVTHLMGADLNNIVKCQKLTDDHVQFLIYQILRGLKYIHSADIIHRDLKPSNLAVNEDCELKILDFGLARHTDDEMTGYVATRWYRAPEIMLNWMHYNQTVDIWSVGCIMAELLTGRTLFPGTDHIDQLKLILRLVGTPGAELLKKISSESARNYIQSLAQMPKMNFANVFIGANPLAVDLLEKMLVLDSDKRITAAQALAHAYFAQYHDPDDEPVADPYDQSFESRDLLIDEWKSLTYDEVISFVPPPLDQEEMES
Chain of Mitogen-activated protein kinase 9 (P45984 whole entry): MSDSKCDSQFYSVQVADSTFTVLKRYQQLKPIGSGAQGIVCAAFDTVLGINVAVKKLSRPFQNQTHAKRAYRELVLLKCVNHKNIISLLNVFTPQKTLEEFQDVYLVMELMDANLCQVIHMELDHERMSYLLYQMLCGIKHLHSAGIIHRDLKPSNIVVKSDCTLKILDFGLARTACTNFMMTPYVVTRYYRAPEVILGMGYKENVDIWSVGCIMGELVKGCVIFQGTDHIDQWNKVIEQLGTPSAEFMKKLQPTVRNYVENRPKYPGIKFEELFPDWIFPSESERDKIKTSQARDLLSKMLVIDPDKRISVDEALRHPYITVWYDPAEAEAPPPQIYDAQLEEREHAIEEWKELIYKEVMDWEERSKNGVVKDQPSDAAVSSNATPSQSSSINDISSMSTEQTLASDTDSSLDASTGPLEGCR
Chain of Epidermal growth factor receptor (P00533 whole entry): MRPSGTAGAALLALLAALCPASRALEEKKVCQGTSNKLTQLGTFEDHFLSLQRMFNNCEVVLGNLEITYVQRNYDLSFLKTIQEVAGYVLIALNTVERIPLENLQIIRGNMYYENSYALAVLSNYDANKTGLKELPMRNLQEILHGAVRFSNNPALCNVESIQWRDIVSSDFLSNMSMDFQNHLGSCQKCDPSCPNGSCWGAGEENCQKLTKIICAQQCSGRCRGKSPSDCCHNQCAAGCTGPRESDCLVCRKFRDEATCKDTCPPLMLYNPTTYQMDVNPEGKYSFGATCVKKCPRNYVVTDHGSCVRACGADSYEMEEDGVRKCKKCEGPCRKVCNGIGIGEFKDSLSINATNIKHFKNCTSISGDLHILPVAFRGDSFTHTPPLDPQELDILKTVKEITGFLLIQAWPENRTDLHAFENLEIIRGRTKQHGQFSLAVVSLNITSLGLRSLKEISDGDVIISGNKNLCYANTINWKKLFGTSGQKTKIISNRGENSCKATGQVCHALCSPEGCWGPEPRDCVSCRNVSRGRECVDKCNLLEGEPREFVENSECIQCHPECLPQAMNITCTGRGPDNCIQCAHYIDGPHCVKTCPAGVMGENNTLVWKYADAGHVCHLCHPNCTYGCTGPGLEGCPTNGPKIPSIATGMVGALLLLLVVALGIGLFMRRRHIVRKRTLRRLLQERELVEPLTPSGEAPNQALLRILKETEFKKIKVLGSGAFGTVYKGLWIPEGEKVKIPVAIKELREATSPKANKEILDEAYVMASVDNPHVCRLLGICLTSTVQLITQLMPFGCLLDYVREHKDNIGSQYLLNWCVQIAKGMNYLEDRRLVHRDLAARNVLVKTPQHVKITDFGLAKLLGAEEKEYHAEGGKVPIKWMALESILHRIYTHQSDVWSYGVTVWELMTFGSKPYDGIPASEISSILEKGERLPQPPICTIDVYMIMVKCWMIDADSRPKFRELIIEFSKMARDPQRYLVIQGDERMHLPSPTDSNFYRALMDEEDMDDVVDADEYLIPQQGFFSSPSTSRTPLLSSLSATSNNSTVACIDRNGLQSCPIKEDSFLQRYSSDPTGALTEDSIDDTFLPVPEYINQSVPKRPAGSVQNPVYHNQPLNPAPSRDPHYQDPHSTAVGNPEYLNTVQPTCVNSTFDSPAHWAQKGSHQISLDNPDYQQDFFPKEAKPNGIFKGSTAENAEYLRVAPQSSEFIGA
Chain of Mitogen-activated protein kinase 1 (P63085 whole entry): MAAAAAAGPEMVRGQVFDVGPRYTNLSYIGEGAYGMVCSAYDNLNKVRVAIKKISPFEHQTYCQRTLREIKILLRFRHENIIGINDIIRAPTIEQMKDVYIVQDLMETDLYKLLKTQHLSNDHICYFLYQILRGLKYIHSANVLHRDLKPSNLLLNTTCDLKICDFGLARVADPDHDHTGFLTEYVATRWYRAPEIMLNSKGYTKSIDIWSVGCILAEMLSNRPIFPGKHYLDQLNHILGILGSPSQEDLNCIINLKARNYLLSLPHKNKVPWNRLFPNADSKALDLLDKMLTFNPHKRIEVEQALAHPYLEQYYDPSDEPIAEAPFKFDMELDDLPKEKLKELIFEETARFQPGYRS
Chain of Tyrosine-protein kinase ABL1 (P00520 whole entry): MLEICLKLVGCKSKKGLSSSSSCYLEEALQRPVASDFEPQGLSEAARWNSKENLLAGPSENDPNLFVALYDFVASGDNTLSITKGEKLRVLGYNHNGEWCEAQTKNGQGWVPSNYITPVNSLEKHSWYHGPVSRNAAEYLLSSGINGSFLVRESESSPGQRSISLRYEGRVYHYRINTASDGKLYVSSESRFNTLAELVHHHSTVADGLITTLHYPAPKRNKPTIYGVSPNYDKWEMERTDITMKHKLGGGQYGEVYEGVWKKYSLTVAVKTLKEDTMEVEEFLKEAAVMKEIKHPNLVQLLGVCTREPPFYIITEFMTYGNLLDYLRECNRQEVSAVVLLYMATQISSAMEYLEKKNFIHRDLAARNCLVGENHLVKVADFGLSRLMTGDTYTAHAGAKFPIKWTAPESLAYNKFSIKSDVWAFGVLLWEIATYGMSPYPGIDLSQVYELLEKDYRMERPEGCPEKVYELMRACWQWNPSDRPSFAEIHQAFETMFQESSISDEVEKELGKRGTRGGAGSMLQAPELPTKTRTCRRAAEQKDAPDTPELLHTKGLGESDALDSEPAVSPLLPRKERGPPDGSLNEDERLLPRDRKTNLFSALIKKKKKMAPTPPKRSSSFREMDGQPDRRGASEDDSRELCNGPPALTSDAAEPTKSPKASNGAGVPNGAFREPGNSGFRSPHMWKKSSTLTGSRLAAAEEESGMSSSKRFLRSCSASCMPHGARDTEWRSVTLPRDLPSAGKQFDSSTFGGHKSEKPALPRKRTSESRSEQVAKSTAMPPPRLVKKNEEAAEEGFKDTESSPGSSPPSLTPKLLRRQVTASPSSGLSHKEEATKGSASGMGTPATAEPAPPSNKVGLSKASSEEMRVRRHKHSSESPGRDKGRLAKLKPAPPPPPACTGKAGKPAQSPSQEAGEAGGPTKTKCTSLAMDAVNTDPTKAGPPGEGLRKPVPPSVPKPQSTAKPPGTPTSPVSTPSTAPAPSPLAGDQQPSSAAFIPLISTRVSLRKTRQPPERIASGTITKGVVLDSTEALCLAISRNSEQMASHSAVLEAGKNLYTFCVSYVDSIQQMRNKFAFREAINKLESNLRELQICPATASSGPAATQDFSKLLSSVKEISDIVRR
Chain of Mitogen-activated protein kinase 11 (Q15759 whole entry): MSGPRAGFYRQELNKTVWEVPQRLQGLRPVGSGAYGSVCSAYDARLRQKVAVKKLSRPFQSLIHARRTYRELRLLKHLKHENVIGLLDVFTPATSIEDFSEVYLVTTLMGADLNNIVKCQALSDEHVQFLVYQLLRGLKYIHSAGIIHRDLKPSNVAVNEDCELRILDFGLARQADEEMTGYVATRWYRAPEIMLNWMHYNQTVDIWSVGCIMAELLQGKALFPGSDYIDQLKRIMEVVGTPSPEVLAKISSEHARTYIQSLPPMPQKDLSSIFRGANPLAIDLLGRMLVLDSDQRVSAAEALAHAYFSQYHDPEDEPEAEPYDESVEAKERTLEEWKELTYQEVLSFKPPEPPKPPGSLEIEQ
Chain of Mitogen-activated protein kinase 8 (P45983 whole entry): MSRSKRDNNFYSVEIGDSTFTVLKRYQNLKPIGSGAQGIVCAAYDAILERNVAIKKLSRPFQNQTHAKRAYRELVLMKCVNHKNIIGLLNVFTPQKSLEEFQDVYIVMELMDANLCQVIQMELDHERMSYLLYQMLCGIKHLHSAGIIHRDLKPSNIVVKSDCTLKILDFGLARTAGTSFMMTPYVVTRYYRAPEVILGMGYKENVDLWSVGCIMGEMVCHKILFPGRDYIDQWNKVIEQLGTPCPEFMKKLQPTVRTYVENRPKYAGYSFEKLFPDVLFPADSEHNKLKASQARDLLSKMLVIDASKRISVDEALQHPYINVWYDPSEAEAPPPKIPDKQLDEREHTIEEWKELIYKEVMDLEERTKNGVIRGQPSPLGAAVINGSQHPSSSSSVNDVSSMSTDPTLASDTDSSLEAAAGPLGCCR

Regarding `OC1(c2nc(-c3ccncc3)c(-c3ccc(F)cc3)[nH]2)CCC1`, the values for the IC50 in [1] and in data set [2] were 20000 nM and 150 nM, respectively.
For `CC(C)(O)c1nc(-c2ccncc2)c(-c2ccc(F)cc2)[nH]1`, the IC50 in data set [1] stood at 87000 nM; in data set [2], 470 nM.
The corresponding values for `OC1(c2nc(-c3ccncc3)c(-c3ccc(F)cc3)[nH]2)CC1` are 40000 nM and 20 nM.
In turn, `CN1CCC(O)(c2nc(-c3ccc(F)cc3)c(-c3ccncc3)o2)CC1` displayed a Cmax in data set [3] of 1960 nM. In addition, the 50% inhibitory concentration (IC50) in data set [4] was 51100 nM; in data set [6], 8090 nM; in data set [8], 797 nM; in data set [9] it was 22700 nM; in data set [1] it was greater than 100000 nM; in data set [10] it was 86800 nM. For the same compound, the IC50 in data set [11] was greater than 10000 nM; in [2] it was 350 nM; in data set [12], greater than 10000 nM; in data set [14], greater than 10000 nM; in data set [15], 2410 nM; with Mus musculus [16] it was 180 nM. The same compound registered a 50% inhibitory concentration (IC50) in data set [18] greater than 100000 nM. Also, the inhibition in vivo at 25 mg/kg in the data set on Rattus norvegicus [5] worked out at 40%. This compound also yielded a bioavailability in data set [7] of 65%. Moreover, at 20 mg/kg the inhibition in vivo in the data set on Mus musculus [13] was 50%. In the data set with Rattus norvegicus [17], it took a dose of 20 mg/kg/day to reach the 50% effect level (ED50).
With `OC1(c2nc(-c3ccncc3)c(-c3ccc(F)cc3)[nH]2)CCCC1`, the IC50 in [1] was 3000 nM; in data set [2] it was 80 nM.
For `OC1(c2nc(-c3ccncc3)c(-c3ccc(F)cc3)[nH]2)CCCCC1` the same measures were 6300 nM and 120 nM.
For `OC1(c2nc(-c3ccncc3)c(-c3ccc(F)cc3)[nH]2)CCCCCC1` the same measures were 200 nM and 76 nM.
Consider `CC(C)(C)c1nc(-c2ccncc2)c(-c2ccccc2)[nH]1`, for which the IC50 in data set [1] was determined as 5000 nM; in data set [2], 450 nM.
As for `CN1CCC(O)(c2nc(-c3ccncc3)c(-c3ccc(F)cc3)o2)CC1`, in data set [2], inhibition was half-maximal at 2000 nM (IC50).
Turning to `CN1CCC(O)(c2nc(-c3ccc(F)cc3)c(-c3ccncc3)s2)CC1`, the figures for the IC50 (in data set [1]; in data set [2]; in the data set on Mus musculus [16]) were 73000 nM, 450 nM and 145 nM, respectively. In addition, testing at 20 mg/kg in the data set with Mus musculus [13] gave an inhibition in vivo of 0%.
The compound `CN1CCC(O)(c2nc(-c3ccc(F)cc3)c(-c3ccncc3)[nH]2)CC1` had a peak concentration (Cmax) in [3] of 400 nM. In addition, the inhibition in vivo at 25 mg/kg with Rattus norvegicus [5] amounted to 23%. Also, the bioavailability in data set [7] is 23%. For the same compound, the IC50 in data set [1] is greater than 100000 nM; in data set [2] it was 90 nM; in the data set on Mus musculus [16], 15 nM. The inhibition in vivo at 20 mg/kg in the data set on Mus musculus [13] is 77%.
For `CN1CCC(O)(c2cc(-c3ccncc3)c(-c3ccc(F)cc3)[nH]2)CC1`, the IC50 was greater than 100000 nM in data set [1], 130 nM in data set [2] and 125 nM in the data set with Mus musculus [16]. In the data set with Mus musculus [13], this compound came in with an inhibition in vivo at 20 mg/kg of 18%.
